From ChEMBL document CHEMBL4004842, “Design, synthesis and biological evaluation of novel non-peptide boronic acid derivatives as proteasome inhibitors” (Eur J Med Chem, 2017)
Calls of active or inactive are those of the source. No cut-off for these calls is given here.

Key:
[1] = biological target: T1, Proteasome Macropain subunit MB1 (Homo sapiens) (UniProt P28074); test: Inhibition of chymotrypsin-like activity of human 20S proteasome at 1 uM using Suc-Leu-Leu-Val-Tyr-AMC as substrate by fluorescence assay relative to control
T1 sequence (whole entry): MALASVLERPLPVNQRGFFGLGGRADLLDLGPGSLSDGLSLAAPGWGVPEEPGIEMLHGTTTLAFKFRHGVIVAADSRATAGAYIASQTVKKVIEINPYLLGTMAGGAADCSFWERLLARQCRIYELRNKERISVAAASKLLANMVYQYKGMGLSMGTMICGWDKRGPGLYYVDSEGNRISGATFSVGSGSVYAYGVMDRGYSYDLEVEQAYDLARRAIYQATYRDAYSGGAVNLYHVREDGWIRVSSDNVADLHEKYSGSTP

[2] = biological target: T1, Proteasome Macropain subunit MB1 (Homo sapiens); test: Inhibition of chymotrypsin-like activity of human 20S proteasome at 100 nM using Suc-Leu-Leu-Val-Tyr-AMC as substrate by fluorescence assay relative to control
RPMI-8226 = test: Antiproliferative activity against human RPMI8226 cells after 72 hrs by SRB assay; format: functional, cell-based; conditions: RPMI-8226, 72 h
A549 = test: Antiproliferative activity against human A549 cells after 72 hrs by SRB assay; format: functional, cell-based; conditions: A549, 72 h
A2780 = test: Antiproliferative activity against human A2780 cells after 72 hrs by SRB assay; format: functional, cell-based; conditions: A2780, 72 h
MDA-MB-231 = test: Antiproliferative activity against human MDA-MB-231 cells after 72 hrs by SRB assay; format: functional, cell-based; conditions: MDA-MB-231, 72 h
[3] = Metabolic stability in Sprague-Dawley rat liver microsomes assessed as compound remaining at 20 uM preincubated for 5 mins followed by NADPH addition measured after 20 mins by HPLC analysis; format: ADME, microsome; conditions: read-out: Stability
HL-60 = test: Antiproliferative activity against human HL60 cells after 72 hrs by SRB assay; format: functional, cell-based; conditions: HL-60, 72 h
[4] = biological target: T2, Proteasome Macropain subunit MB1 (Homo sapiens, UniProt P28074); test: Inhibition of chymotrypsin-like activity of human 20S proteasome using Suc-Leu-Leu-Val-Tyr-AMC as substrate by fluorescence assay
T2 sequence (P28074 whole entry): T1 sequence (whole entry)

Homo sapiens = organism: Homo sapiens; test: Inhibition of 20S proteasome activity in human MDA-MB-231 cells assessed as accumulation of ubiquitinated proteins at 50 nM by Western blot method; format: cell-based
[5] = biological target: T2, Proteasome Macropain subunit MB1; test: Inhibition of chymotrypsin-like activity of human LCL-derived 20S proteasome using Suc-LLVY-AMC as substrate preincubated with enzyme followed by substrate addition measured after 30 mins by fluorescence assay
[6] = Drug metabolism in human plasma administered as iv bolus dose after 30 mins; format: ADME, organism-based; conditions: read-out: Drug metabolism

Row | Compound | inhibition [1] [%] | inhibition [2] [%] | other results
1 | CC1=C(N[C@@H](CC(C)C)C(=O)N[C@@H](CC(C)C)B(O)O)C(=O)c2ccccc2C1=O | > 50 | 31.4 | –
2 | CC(C)C[C@H](NC(=O)[C@H](Cc1ccccc1)NC1=CC(=O)c2ccccc2C1=O)B(O)O | > 50 | 90.3 | IC50 (RPMI-8226): 1090 nM; IC50 (A549): 679 nM; IC50 (A2780): 470 nM; IC50 (MDA-MB-231): 38.3 nM; remaining at 20 min, 20 µM [3]: 60%; IC50 (HL-60): 1110 nM; IC50 [4]: 11.4 nM; inhibition (Homo sapiens): Active
3 | O=CN(O)CCC[C@@H](NC(=O)[C@H](CO)NC(=O)[C@@H]1COC(c2ccccc2O)=N1)C(=O)NCCC(=O)N[C@@H]1CCCN(O)C1=O | – | – | IC50 [5]: 39400 nM
4 | CC1=C(N[C@@H](Cc2ccccc2)C(=O)N[C@@H](CC(C)C)B(O)O)C(=O)c2ccccc2C1=O | > 50 | 84.7 | IC50 [4]: 25.9 nM
5 | CC(C)C[C@H](NC(=O)[C@H](Cc1ccccc1)NC(=O)c1cnccn1)B(O)O [BORTEZOMIB] | – | – | IC50 (RPMI-8226): 6.7 nM; IC50 (A549): 2.5 nM; IC50 (A2780): 28.9 nM; IC50 (MDA-MB-231): 6.5 nM; remaining at 20 min, 20 µM [3]: 44%; IC50 (HL-60): 3.2 nM
6 | CC(C)C[C@H](NC(=O)CNC(=O)c1cc(Cl)ccc1Cl)B(O)O [IXAZOMIB] | – | – | metabolised at 0.5 h [6]: 90%
7 | CC1=C(N[C@H](C(=O)N[C@@H](CC(C)C)B(O)O)C(C)C)C(=O)c2ccccc2C1=O | > 50 | 42.3 | –
8 | C[C@@H](CO)NC(=O)c1ccccc1O | – | – | IC50 [5]: 24800 nM
9 | CC(C)C[C@H](NC(=O)CNC1=CC(=O)c2ccccc2C1=O)B(O)O | > 50 | 84.9 | IC50 (RPMI-8226): 3460 nM; IC50 (A549): 2890 nM; IC50 (A2780): 3700 nM; IC50 (MDA-MB-231): 1250 nM; IC50 (HL-60): 3590 nM; IC50 [4]: 23.2 nM; inhibition (Homo sapiens): Active
10 | CC(C)C[C@H](NC(=O)[C@H](CC(C)C)NC1=C(Cl)C(=O)c2ccccc2C1=O)B(O)O | > 50 | 43.5 | –
11 | CC(C)C[C@H](NC(=O)CNC1=C(Cl)C(=O)c2ccccc2C1=O)B(O)O | > 50 | 67.7 | –
12 | CC1=C(N[C@@H](C)C(=O)N[C@@H](CC(C)C)B(O)O)C(=O)c2ccccc2C1=O | > 50 | 52.3 | –

More lines, main results first:

Row | inhibition [1] [%] | inhibition [2] [%] | Compound | other results
13 | > 50 | 67.5 | CC(C)C[C@H](NC(=O)[C@H](C)NC1=CC(=O)c2ccccc2C1=O)B(O)O | –
14 | > 50 | 64.8 | CC(C)C[C@H](NC(=O)[C@H](C)NC1=C(Cl)C(=O)c2ccccc2C1=O)B(O)O | –
15 | > 50 | 69.2 | CC(C)C[C@H](NC(=O)[C@@H](NC1=CC(=O)c2ccccc2C1=O)C(C)C)B(O)O | –
16 | > 50 | 79.8 | CC(C)C[C@H](NC(=O)[C@H](CC(C)C)NC1=CC(=O)c2ccccc2C1=O)B(O)O | IC50 [4]: 44.3 nM
17 | > 50 | 65.9 | CC1=C(NCC(=O)N[C@@H](CC(C)C)B(O)O)C(=O)c2ccccc2C1=O | –
18 | > 50 | 47.4 | CC(C)C[C@H](NC(=O)[C@@H](NC1=C(Cl)C(=O)c2ccccc2C1=O)C(C)C)B(O)O | –
19 | > 50 | 86.7 | CC(C)C[C@H](NC(=O)[C@H](Cc1ccccc1)NC1=C(Cl)C(=O)c2ccccc2C1=O)B(O)O | IC50 [4]: 24.6 nM
